Source: ChEMBL document CHEMBL2203174, “SAR Development of Lysine-Based Irreversible Inhibitors of Transglutaminase 2 for Huntington's Disease” (ACS Med Chem Lett, 2012)
≈ marks a conversion by molar mass, not a printed value. Peptide text beside a SMILES is read from it. * marks the point of attachment. Cbz = O=C(OCc1ccccc1)*; Acryloyl = C=CC(=O)*; OtBu = CC(C)(C)O*

What was measured:
[1] = Apparent permeability of the compound across apical to basolateral side in wild type MDCK cells at 10 uM; assay type: ADME, cell-based, Canis lupus familiaris; conditions: dog
MDR1 = test: Efflux ratio of permeability in MDCK cells expressing MDR1 at 10 uM; assay type: ADME, cell-based, Canis lupus familiaris; conditions: dog
[2] = Intrinsic clearance in human liver microsomes at 1 uM by LC-MS/MS analysis; assay type: ADME, Microsome; conditions: read-out: CLH
[3] = Intrinsic clearance in mouse liver microsomes at 1 uM by LC-MS/MS analysis; assay type: ADME, Microsome; conditions: read-out: CLH
[4] = Half life in mouse plasma at 1 uM by LC-MS/MS analysis; assay type: ADME, cell-free
[5] = Half life in human plasma at 1 uM by LC-MS/MS analysis; assay type: ADME, cell-free
[6] = Ratio of IC50 for mouse transglutaminase 2 to IC50 for human transglutaminase 2
[7] = Kinetic solubility of the compound in PBS at pH 7.4 by LC-UV analysis; assay type: physicochemical; conditions: read-out: Kinetic_solubility
[8] = molecular target: T1, Protein-glutamine gamma-glutamyltransferase 6 (Homo sapiens, UniProt O95932); test: Inhibition of transglutaminase 6
T1 sequence (O95932 whole entry): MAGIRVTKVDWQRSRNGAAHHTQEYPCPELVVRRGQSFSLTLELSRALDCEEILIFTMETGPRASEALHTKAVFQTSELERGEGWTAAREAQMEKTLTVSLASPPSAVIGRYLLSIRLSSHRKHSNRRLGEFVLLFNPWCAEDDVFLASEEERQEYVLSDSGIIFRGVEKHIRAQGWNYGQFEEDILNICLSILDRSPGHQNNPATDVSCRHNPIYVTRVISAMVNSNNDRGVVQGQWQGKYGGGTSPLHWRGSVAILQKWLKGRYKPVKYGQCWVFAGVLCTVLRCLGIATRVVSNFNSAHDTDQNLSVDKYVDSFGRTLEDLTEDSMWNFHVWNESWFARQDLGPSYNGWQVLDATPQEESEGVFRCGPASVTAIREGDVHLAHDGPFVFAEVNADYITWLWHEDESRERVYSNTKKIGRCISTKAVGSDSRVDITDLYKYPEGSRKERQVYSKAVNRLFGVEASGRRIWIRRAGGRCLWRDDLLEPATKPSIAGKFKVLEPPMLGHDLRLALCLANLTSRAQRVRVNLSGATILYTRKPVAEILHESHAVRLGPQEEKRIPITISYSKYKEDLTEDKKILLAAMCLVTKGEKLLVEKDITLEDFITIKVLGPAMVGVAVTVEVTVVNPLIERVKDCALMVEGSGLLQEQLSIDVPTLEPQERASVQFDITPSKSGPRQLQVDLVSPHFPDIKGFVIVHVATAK

[9] = Half life in mouse liver microsomes; assay type: ADME, Microsome
[10] = Apparent permeability of the compound across basolateral to apical side in human Caco2 cells; assay type: ADME, cell-based; conditions: Caco-2
[11] = Apparent permeability of the compound across apical to basolateral side in human Caco2 cells; assay type: ADME, cell-based; conditions: Caco-2
[12] = Aqueous solubility of the compound; assay type: physicochemical; conditions: buffer
[13] = molecular target: T2, Protein-glutamine gamma-glutamyltransferase 2 (Mus musculus, UniProt P21981); test: Inhibition of mouse transglutaminase 2
T2 sequence (P21981 whole entry): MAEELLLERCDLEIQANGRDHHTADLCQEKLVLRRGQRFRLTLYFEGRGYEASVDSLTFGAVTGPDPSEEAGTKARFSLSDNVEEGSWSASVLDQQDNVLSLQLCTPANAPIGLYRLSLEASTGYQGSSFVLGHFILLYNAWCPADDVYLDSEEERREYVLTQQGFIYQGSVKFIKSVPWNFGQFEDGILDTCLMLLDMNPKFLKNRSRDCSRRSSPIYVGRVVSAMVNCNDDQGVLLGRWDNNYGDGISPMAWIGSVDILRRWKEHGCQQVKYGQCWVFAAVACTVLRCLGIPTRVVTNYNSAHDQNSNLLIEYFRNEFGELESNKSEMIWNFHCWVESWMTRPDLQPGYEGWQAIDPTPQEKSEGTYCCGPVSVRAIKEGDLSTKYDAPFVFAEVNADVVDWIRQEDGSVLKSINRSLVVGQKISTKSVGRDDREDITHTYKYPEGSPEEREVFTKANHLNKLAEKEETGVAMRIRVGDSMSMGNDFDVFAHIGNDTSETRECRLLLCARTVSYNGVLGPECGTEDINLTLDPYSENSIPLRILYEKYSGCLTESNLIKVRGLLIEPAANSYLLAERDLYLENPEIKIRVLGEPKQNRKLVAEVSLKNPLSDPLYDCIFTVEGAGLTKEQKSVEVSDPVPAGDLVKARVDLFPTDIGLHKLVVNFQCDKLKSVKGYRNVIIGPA

Row | SMILES | Papp A→B at 10 µM [1] [×10⁻⁶ cm/s] | efflux ratio at 10 µM (MDR1) | microsomal CLint at 1 µM [2] [µL/min/mg] | microsomal CLint at 1 µM [3] [µL/min/mg] | half-life at 1 µM [4] [h] | half-life at 1 µM [5] [h] | Ratio IC50 [6] | solubility kinetic [7] [µg/mL] | IC50 [8] [µM] | half-life [9] [min] | Papp B→A [10] [×10⁻⁶ cm/s] | Papp A→B [11] [×10⁻⁶ cm/s] | solubility [12] [µg/mL] | IC50 [13] [µM]
1 | C=CC(=O)NCCCC[C@H](NC(=O)OCc1ccccc1)C(=O)N1CCN(c2ccccc2Cl)CC1 | 30.3 | 7.1 | > 1390 | > 1390 | > 8 | > 8 | 2 | 60 (≈ 117 µM) | 69 |  |  |  |  | 
2 | C=CC(=O)NCCCC[C@H](NC(=O)OCc1ccccc1)C(=O)NCC(=O)OC(C)(C)C (Cbz-Lys(Acryloyl)-Gly-OtBu) |  |  |  |  |  |  |  |  | > 80 | 7 | 25 | 7.5 | 1490 (≈ 3330 µM) | 6.2
3 | C=CC(=O)NCCCC[C@H](NC(=O)Cc1ccccc1)C(=O)N1CCN(c2cccc(C)n2)CC1 | 14.2 | 118 | > 1390 |  | > 24 | > 24 |  | 870 (≈ 1820 µM) | > 80 |  |  |  |  | 
